These results are taken from patent US20230374038A1, “MODULATORS OF CYSTIC FIBROSIS TRANSMEMBRANE CONDUCTANCE REGULATOR” (VERTEX PHARMACEUTICALS INCORPORATED, priority 2020, published 2023).

The term EC50 denotes the concentration needed to bring the measured effect to its halfway point.

Common to all, as to assay type: cell-based
The target of assay [1] is T1, CFTR (Homo sapiens, UniProt P13569). The assay can be described thus: Membrane Potential Dye, Enteroid Assay A. The settings on record: for EC50: read-out: Ent. A EC50. The method, then:
Base medium (ADF+++) consisted of Advanced DMEM/Ham's F12, 2 mM Glutamax, 10 mM HEPES, 1 µg/mL penicillin/streptomycin.
Intestinal enteroid maintenance medium (IEMM) consisted of ADF+++, 1× B27 supplement, 1× N2 supplement, 1.25 mM N-acetyl cysteine, 10 mM Nicotinamide, 50 ng/mL hEGF, 10 nM Gastrin, 1 pg/mL hR-spondin-1, 100 ng/mL hNoggin, TGF-b type 1 inhibitor A-83-01, 100 μg/mL Primocin, […] P38 MAPK inhibitor SB202190.
Bath 1 Buffer consisted of 1 mM MgCl2, 160 mM NaCl, 4.5 mM KCl, 10 mM HEPES, 10 mM Glucose, 2 mM CaCl2).
Chloride Free Buffer consisted of 1 mM Magnesium Gluconate, 2 mM Calcium Gluconate, 4.5 mM Potassium Gluconate, 160 mM Sodium Gluconate, 10 mM HEPES, 10 mM Glucose.
Bath1 Dye Solution consisted of Bath 1 Buffer, 0.04% Pluronic F127, […] Methyl Oxonol, 30 μM CaCCinh-A01, 30 μM Chicago Sky Blue.
Chloride Free Dye Solution consisted of Chloride Free Buffer, 0.04% Pluronic F127, 20 μM Methyl Oxonol, 30 μM CaCCinh-A01, 30 μM Chicago Sky Blue.
Chloride Free Dye Stimulation Solution consisted of Chloride Free Dye Solution, 10 μM forskolin, 100 μM IBMX, and 300 nM Compound III.
Human intestinal epithelial enteroid cells were obtained from the Hubrecht Institute for Developmental Biology and Stem Cell Research, Utrecht, The Netherlands and expanded in T-Flasks as previously described (Dekkers J F, Wiegerinck C L, de Jonge H R, Bronsveld I, Janssens H M, de Winter-de Groot K M, Brandsma A M, de Jong N W M, Bijvelds M J C, Scholte B J, Nieuwenhuis E E S, van den Brink S, Clevers H, van der Ent C K, Middendorp S and M Beekman J M. A functional CFTR assay using primary cystic fibrosis intestinal organoids. Nat Med. 2013 July; 19(7):939-45.).
Cells were recovered in cell recovery solution, collected by centrifugation at 650 rpm for 5 min at 4° C., resuspended in TryPLE and incubated for 5 min at 37° C. Cells were then collected by centrifugation at 650 rpm for 5 min at 4° C. and resuspended in IEMM containing 10 μM ROCK inhibitor (RI). The cell suspension was passed through a 40 μm cell strainer and resuspended at 1×10^6 cells/mL in IEMM containing 10 μM RI. Cells were seeded at 5000 cells/well into multi-well plates and incubated for overnight at 37° C., 95% humidity and 5% CO2 prior to assay.
Enteroid cells were incubated with test compound in IEMM for 18-24 hours at 37° C., 95% humidity and 5% CO2. […] Briefly, cells were washed 5 times in Bath 1 Buffer. Bath 1 Dye Solution was added, and the cells were incubated for 25 min at room temperature. Following dye incubation, cells were washed 3 times in Chloride Free Dye Solution. Chloride transport was initiated by addition of Chloride Free Dye Stimulation Solution and the fluorescence signal was read for 15 min. […] Chloride transport was then expressed as a percentage of the chloride transport following treatment with 3 μM (S)—N-((6-aminopyridin-2-yl)sulfonyl)-6-(3-fluoro-5-isobutoxyphenyl)-2-(2,2,4-trimethylpyrrolidin-1-yl)nicotinamide, 3 μM (R)-1-(2,2-difluorobenzo[d][1,3]dioxol-5-yl)-N-(1-(2,3-dihydroxypropyl)-6-fluoro-2-(1-hydroxy-2-methylpropan-2-yl)-1H-indol-5-yl)cyclopropanecarboxamide and 300 nM acute N-[2,4-bis(1,1-dimethylethyl)-5-hydroxyphenyl]-1,4-dihydro-4-oxoquinoline-3-carboxamide triple combination control (% Activity).

For assay [2], the target named is T1, CFTR. Nature of the assay: Membrane Potential Dye, Enteroid Assay B. In a few lines:
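Membrane-potential fluorescence read over 15 min after chloride-free stimulation (forskolin 10 μM, IBMX 100 μM, Compound III 300 nM), with CaCCinh-A01 and Chicago Sky Blue present. Enteroids had 18-24 h compound exposure at 37 °C; activity given as % of the triple-combination corrector/potentiator reference response.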

Assay [3] addresses T2, CFTR (Homo sapiens, UniProt P13569, DEL508-508).
T2 construct: endogenous in cells; host or cells: primary human bronchial epithelial cells, F508del/MF genotype
The assay can be described thus: HBE Assay: Ussing chamber assay of CFTR-mediated short-circuit currents in F508del/MF-HBE cells with 1 μM Ivacaftor. The note with it: 20% human serum. The gist of the method: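 F508del/MF-HBE cells at air-liquid interface >14 days were incubated 18-24 h at 37° C with corrector (concentration range or fixed 10 μM) plus 1 μM Ivacaftor in 20% human serum, compounds kept throughout. Ussing chamber, Vhold=0 mV, 37° C, apical amiloride 30 μM; ISC (μA/cm^2) from peak 20 μM forskolin response to steady state after CFTR inhibitor cocktail.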

T2 sequence (P13569 with tags, fused parts or gaps DEL508-508): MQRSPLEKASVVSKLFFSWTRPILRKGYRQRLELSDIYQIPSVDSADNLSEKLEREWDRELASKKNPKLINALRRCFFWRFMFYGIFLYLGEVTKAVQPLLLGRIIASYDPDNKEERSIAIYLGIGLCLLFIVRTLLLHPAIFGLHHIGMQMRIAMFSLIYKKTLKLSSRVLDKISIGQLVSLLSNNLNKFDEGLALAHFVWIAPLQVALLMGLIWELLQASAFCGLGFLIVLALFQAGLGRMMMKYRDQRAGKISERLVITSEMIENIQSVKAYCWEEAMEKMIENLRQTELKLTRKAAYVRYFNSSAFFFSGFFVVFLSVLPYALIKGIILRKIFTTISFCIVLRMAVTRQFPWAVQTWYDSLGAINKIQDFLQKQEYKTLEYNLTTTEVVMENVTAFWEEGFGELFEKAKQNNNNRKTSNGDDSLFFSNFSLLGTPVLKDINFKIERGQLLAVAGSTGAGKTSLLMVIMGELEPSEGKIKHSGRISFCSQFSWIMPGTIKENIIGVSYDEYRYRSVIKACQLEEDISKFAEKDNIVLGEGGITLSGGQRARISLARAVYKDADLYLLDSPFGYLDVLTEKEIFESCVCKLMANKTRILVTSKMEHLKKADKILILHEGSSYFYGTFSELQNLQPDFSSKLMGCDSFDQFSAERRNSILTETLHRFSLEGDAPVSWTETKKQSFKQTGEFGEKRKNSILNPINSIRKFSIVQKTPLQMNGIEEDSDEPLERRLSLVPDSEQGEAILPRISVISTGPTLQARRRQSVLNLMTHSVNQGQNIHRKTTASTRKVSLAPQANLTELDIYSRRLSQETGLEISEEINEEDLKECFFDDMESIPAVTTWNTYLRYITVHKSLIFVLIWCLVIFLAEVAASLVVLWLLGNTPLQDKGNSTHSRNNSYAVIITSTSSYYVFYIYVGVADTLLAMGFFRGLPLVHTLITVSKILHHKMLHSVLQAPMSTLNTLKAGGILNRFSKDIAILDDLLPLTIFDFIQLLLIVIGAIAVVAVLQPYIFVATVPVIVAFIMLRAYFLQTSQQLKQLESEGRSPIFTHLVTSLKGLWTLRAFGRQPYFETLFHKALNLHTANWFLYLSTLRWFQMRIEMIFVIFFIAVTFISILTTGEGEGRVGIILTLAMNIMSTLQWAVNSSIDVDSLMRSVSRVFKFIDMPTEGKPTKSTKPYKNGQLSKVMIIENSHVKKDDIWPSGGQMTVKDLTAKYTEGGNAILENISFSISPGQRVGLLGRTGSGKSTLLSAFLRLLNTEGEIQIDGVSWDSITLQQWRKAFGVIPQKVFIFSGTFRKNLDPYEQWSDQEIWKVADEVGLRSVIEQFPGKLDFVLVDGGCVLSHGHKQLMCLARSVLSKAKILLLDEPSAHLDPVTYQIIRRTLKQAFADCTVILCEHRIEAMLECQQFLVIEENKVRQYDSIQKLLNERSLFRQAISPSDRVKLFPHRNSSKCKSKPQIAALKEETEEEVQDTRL
T1 sequence (P13569 with tags, fused parts or gaps DEL508-508): as above

As to `CCc1c2nc(nc1-c1ccccc1OC)NS(=O)(=O)c1cccc(c1)NC(=O)c1cccc(c1)O2` [Compound 23], in assay [1], the “Ent. A Max Activity” value is listed as “++ (++ is 30-60%)” and the 50% effective concentration (EC50) lay within 3000 to 30000 nM.
As for `CCc1c2nc(nc1-c1cccc(OC(C)C)c1)NS(=O)(=O)c1cccc(c1)NC(=O)c1cccc(c1)O2` [Compound 28], in assay [1], the “Ent. A Max Activity” value is “+ (+ is <30%)” and the EC50 was 1000 to 3000 nM.
For the compound `Cc1ncccc1-c1nc2nc(c1C(C)(C)C)OC1CN(Cc3ccccc31)C(=O)c1cccc(c1)S(=O)(=O)N2` (centres unmarked) [Compound 45], the “Ent. A Max Activity” value in assay [1] is “+ (+ is <30%)”.
As for `Cc1cccc(C)c1-c1nc2nc(c1OC(C)C)OC[C@@H](CC(C)C)N(C1CC3(CCN(C)CC3)C1)C(=O)c1cccc(c1)S(=O)(=O)N2` [Compound 176], in assay [1], the “Ent. A Max Activity” value is “+++ (+++ is >60%)” and the concentration giving a half-maximal response (EC50) was below 1000 nM. Further, in assay [2], the “Ent. B Max Activity” value was “+++ (+++ is >60%)”. The EC50 in assay [2] (read-out: Ent. B EC50) was below 1000 nM.
With `CCc1c2nc(nc1-c1c(C)cccc1C)NS(=O)(=O)c1cccc(c1)C(=O)NCC(c1ccc(C(C)(C)C)cc1)O2` (centres unmarked) [Compound 178], in assay [1], the “Ent. A Max Activity” value is “+++ (+++ is >60%)” and the EC50 is below 1000 nM.
With `Cc1ncccc1-c1nc2nc(c1C(F)(F)F)OC1CN(Cc3ccccc31)C(=O)c1cccc(c1)S(=O)(=O)N2` (centres unmarked) [Compound 40, 12-(2-Methyl-3-pyridyl)-8,8-dioxo-13-(trifluoromethyl)-15-oxa-8λ^6-thia-1,9,11,25-tetrazapentacyclo[14.7.1.13,7.110,14.017,22]hexacosa-3,5,7(26),10(25),11,13,17(22),18,20-nonaen-2-one], the “Ent. A Max Activity” value in assay [1] is given as “+ (+ is <30%)”.
On the same count and under the same terms, the same measure for `CC(C)Oc1cccc(-c2nc3nc(c2C(C)(C)C)OC2CN(Cc4ccccc42)C(=O)c2cccc(c2)S(=O)(=O)N3)c1` (centres unmarked) [Compound 44]: “+ (+ is <30%)”.
`CCc1c2nc(nc1-c1c(C)cccc1OC)NS(=O)(=O)c1cccc(c1)NC(=O)c1cccc(c1)O2` [Compound 6, 4-Ethyl-5-(2-methoxy-6-methylphenyl)-2-oxa-9λ^6-thia-6,8,15,23-tetraazatetracyclo[15.3.1.13,7.110,14]tricosa-1(21),3,5,7(23),10(22),11,13,17,19-nonaene-9,9,16-trione]: in assay [1], the “Ent. A Max Activity” value is recorded as “++ (++ is 30-60%)” and the EC50 was 1000 to 3000 nM.
In the same order, the values of `CCc1c2nc(nc1-c1c(C)ccc(OCCC(C)C)c1C)NS(=O)(=O)c1cccc(c1)NC(=O)c1cccc(c1)O2` [Compound 9] are “++ (++ is 30-60%)” and below 1000 nM.
For `CC(C)(C)c1c2nc(nc1-c1ccccc1)NS(=O)(=O)c1cccc(c1)C(=O)N1Cc3ccccc3C(C1)O2` (centres unmarked) [Compound 46], in assay [1], the “Ent. A Max Activity” value was “+ (+ is <30%)”.
As for `Cc1ccccc1-c1nc2nc(c1C(C)(C)C)OC1CN(Cc3ccccc31)C(=O)c1cccc(c1)S(=O)(=O)N2` (centres unmarked) [Compound 39, 13-tert-Butyl-12-(o-tolyl)-8,8-dioxo-15-oxa-8λ^6-thia-1,9,11,25-tetrazapentacyclo[14.7.1.13,7.110,14.017,22]hexacosa-3,5,7(26),10(25),11,13,17(22),18,20-nonaen-2-one], in assay [1], the “Ent. A Max Activity” value is given as “++ (++ is 30-60%)” and the EC50 was below 1000 nM.
Turning to `CCc1c2nc(nc1-c1cccnc1C)NS(=O)(=O)c1cccc(c1)NC(=O)c1cccc(c1)O2` [Compound 7, 4-Ethyl-5-(2-methylpyridin-3-yl)-2-oxa-9λ^6-thia-6,8,15,23-tetraazatetracyclo[15.3.1.13,7.110,14]tricosa-1(21),3,5,7(23),10(22),11,13,17,19-nonaene-9,9,16-trione], the “Ent. A Max Activity” value in assay [1] is reported as “+ (+ is <30%)”.
For the compound `CCc1c2nc(nc1-c1cnccc1C)NS(=O)(=O)c1cccc(c1)NC(=O)c1cccc(c1)O2` [Compound 21], the “Ent. A Max Activity” value in assay [1] was “+ (+ is <30%)”.
As to `CC(C)CCc1ccccc1-c1nc2nc(c1C(F)(F)F)OC1CN(Cc3ccccc31)C(=O)c1cccc(c1)S(=O)(=O)N2` (centres unmarked) [Compound 41], in assay [1], the “Ent. A Max Activity” value is “+++ (+++ is >60%)” and the concentration giving a half-maximal response (EC50) is below 1000 nM.
`CCOc1ccccc1-c1nc2nc(c1CC)Oc1cccc(c1)C(=O)Nc1cccc(c1)S(=O)(=O)N2` [Compound 24]: in assay [1], the “Ent. A Max Activity” value is “+ (+ is <30%)” and the EC50 was in the range of 1000 to 3000 nM.
Turning to `CCc1c2nc(nc1-c1ccccc1)NS(=O)(=O)c1cccc(c1)NC(=O)c1cccc(c1)O2` [Compound 30], the “Ent. A Max Activity” value in assay [1] is given as “+ (+ is <30%)”.
For the compound `CCc1c2nc(nc1-c1ccncc1C)NS(=O)(=O)c1cccc(c1)NC(=O)c1cccc(c1)O2` [Compound 22], the “Ent. A Max Activity” value in assay [1] is given as “+ (+ is <30%)”.
For `Cc1ccccc1-c1nc2nc(c1C(F)(F)F)OC1CN(Cc3ccccc31)C(=O)c1cccc(c1)S(=O)(=O)N2` (centres unmarked) [Compound 43], in assay [1], the “Ent. A Max Activity” value is recorded as “+++ (+++ is >60%)” and the EC50 was below 1000 nM.
Regarding `CCc1c2nc(nc1-c1cccc(OCC(C)C)c1)NS(=O)(=O)c1cccc(c1)NC(=O)c1cccc(c1)O2` [Compound 27], in assay [1], the “Ent. A Max Activity” value is “+ (+ is <30%)” and the EC50 was below 1000 nM.
`CCc1c2nc(nc1-c1cccnc1OC)NS(=O)(=O)c1cccc(c1)NC(=O)c1cccc(c1)O2` [Compound 20]: the “Ent. A Max Activity” value in assay [1] is given as “+ (+ is <30%)”.
With `Cc1cccc(CC(C)(C)C)c1-c1nc2nc(c1C)OC[C@@H](CC(C)(C)C)N(Cc1ncc(N3CCC(C)(C)C3)cn1)C(=O)c1cccc(c1)S(=O)(=O)N2` (atropisomer, axis not shown; (M)) [Compound 214, (5M,11R)-11-(2,2-dimethylpropyl)-6-[2-(2,2-dimethylpropyl)-6-methylphenyl]-12-{[5-(3,3-dimethylpyrrolidin-1-yl)pyrimidin-2-yl]methyl}-7-methyl-9-oxa-2λ^6-thia-3,5,12,19-tetraazatricyclo[12.3.1.14,8]nonadeca-1(17),4(19),5,7,14(18),15-hexaene-2,2,13-trione], the “HBE Activity at 10 μM” value in assay [3] (single fixed concentration of 10 μM, with 1 μM Ivacaftor) is “++ (++ is 30-60%)”.
Turning to `Cc1cccc(C)c1-c1nc2nc(c1F)OC[C@@H](CC1CC1)N(Cc1ncc(OC3CCC3)cn1)C(=O)c1cccc(c1)S(=O)(=O)N2` [Compound 344], in assay [3] (range of concentrations with 1 μM Ivacaftor, 18-24 hours), the EC50 was in the range of 1000 to 3000 nM. The Emax in assay [3] (with 1 μM Ivacaftor, 18-24 hours, compared to known Vertex corrector with 18 μM Tezacaftor and 1 μM Ivacaftor, read-out: HBE Max activity (%)) was above 60%.
Take `CC(C)Oc1cccc(-c2nc3nc(c2C(F)(F)F)OC2CN(Cc4ccccc42)C(=O)c2cccc(c2)S(=O)(=O)N3)c1` (centres unmarked) [Compound 42]: in assay [1], the “Ent. A Max Activity” value was “+ (+ is <30%)” and the EC50 is below 1000 nM.
